Entries after “also recorded” stand apart in the source; their conditions may differ. Like-named read-outs stand apart in the source and are kept apart here.
Key:
DU-145 cells = experiment: LDH cytotoxicity, DU-145 cells; type: cell-based, human; settings: 24 h; for LDH release: 10 μM; for increase in LDH release: 50 μM
Description: DU-145 cells were seeded at a density of 130 × 10^3 cells/well in 6-well plates and maintained in an incubator at 37 °C with 5% CO2 for 24 h. […] Treated cells were incubated for an additional 24 h, followed by quantification of LDH release. LDH released from damaged or dying cells oxidizes lactate to produce NADH which then reacts with a water-soluble tetrazolium salt (WST) reagent to produce a yellow-colored product. The intensity of the yellow-colored product was detected with an OD reading at 450 nm (quantified by a BioTek microplate reader interfaced with SoftMax Pro 5.4.5 software; Winooski, VT, USA) and was directly proportional to the amount of LDH released. Percent cytotoxicity was calculated according to the manufacturer’s protocol as the following: % Cytotoxicity=OD450 Supernatant/Supernatant+Lysate

[1] = test system: CBRs expressed in DU-145 cells; type: cell-based, human
Description: (§1) These studies were conducted to determine the effect of chronic exposure of PC-3 and DU-145 cells to cannabinoid ligands with high affinity for non-canonical CBRs on receptor expression. PC-3 or DU-145 cells were seeded into T25 flasks at a density of 1.6 × 10^6 cells in normal medium and cultured at 37 °C with 5% CO2 for 24 h. Following overnight seeding, culture media was aspirated and replaced with serum-free medium containing vehicle or a receptor-saturating concentration (10 μM) of each cannabinoid ligand to be tested. Cells were subsequently cultured at 37 °C with 5% CO2 for an additional 48 h. […] Cells were then centrifuged at 1200 rpm for 10 min, and pellets were stored in −80 °C until future use.
(§2) All binding reactions were conducted in triplicate, in a final volume of 1 mL, and following mixing were incubated for 20 min in a 37 °C water bath to achieve equilibrium. After incubation, reactions were terminated by rapid vacuum filtration through Whatman GF/B glass fiber filters (Brandel; Gaithersburg, MD, USA), followed by three washes of 4 mls of ice-cold filtration buffer (50 mM Tris, pH 7.4, and 0.05% bovine serum albumin). Samples were punched out from filter papers into scintillation vials, to which 4 mls of ScintiverseTM-BDR cocktail scintillation fluid (Fisher Scientific; Hampton, NH, USA) was added. Filters were incubated at room temperature for 24 h in scintillation fluid, vortexed, and radioactivity (measured as DPMs) was quantified via a liquid scintillation spectrophotometer (Tri Carb 2100 TR Liquid Scintillation Analyzer, Packard Instruments, Meriden, CT, USA).

[2] = test system: CBRs expressed in PC-3 cells; type: cell-based, human
Description: as §1, §2

[3] = test system: CBRs expressed in DU-145 membranes; type: binding, human
Description: as §2, with “The assay was conducted as previously detailed. […] All” for “All”, “mL, and,” for “mL, and”, “following mixing,” for “following mixing”
(§3) These experiments were conducted to screen well-characterized cannabinoid ligands with high affinity for canonical CB1 and/or CB2Rs for binding to CBRs expressed in prostate cancer cells lines, as detailed in [33]. […] All binding reactions were conducted in triplicate, in a final volume of 1 mL, and, following mixing, were incubated for 20 min in a 37 °C water bath to achieve equilibrium. After incubation, reactions were terminated by rapid vacuum filtration and processed for radioactivity, as detailed in Section 4.5.1.

[4] = test system: CBRs expressed in PC-3 membranes; experiment: [^3H]WIN-55,212-2 competitive binding screen, PC-3 membranes; design: species or system human
Description: as §2, with “The assay was conducted as previously detailed. […] All” for “All”, “mL, and,” for “mL, and”, “following mixing,” for “following mixing”
as §3

[5] = test system: CBRs expressed in PC-3 membranes; experiment: [^35S]GTPγS binding, PC-3 membranes; type: biochemical, human; settings: 10 μM
Description: [^35S]GTPγS binding experiments were conducted to examine G protein modulation by cannabinoids in prostate cancer cell lines DU-145 and PC-3, as detailed previously. Briefly, CHO-hCB2 (50 μg), PC3 (100 μg), or DU-145 (100 μg) membrane homogenates were incubated with a single receptor-saturating concentration (10^−5 M) of cannabinoid ligands to be examined and 0.1 nM [^35S]GTPγS in incubation buffer (20 mM HEPES buffer, pH 7.4, 10 μM GDP, 100 mM NaCl, 0.1% bovine serum albumin, and 10 mM MgCl2). Non-specific binding was defined as radioactivity remaining in the presence of 10 μM of non-radioactive GTPγS and subtracted from total binding to determine specific [^35S]GTPγS binding. All binding reactions were conducted in triplicate, in a final volume of 1 mL, and, following mixing, were incubated for 30 min at 30 °C. After incubation, reactions were terminated by rapid vacuum filtration through Whatman GF/B glass fiber filters (Brandel; Gaithersburg, MD, USA), followed by three washes of 4 mls of ice-cold filtration buffer (50 mM Tris, pH 7.4, and 0.05% bovine serum albumin). Samples were punched out from filter papers into scintillation vials, to which 4 mls of ScintiverseTM-BDR cocktail scintillation fluid (Fisher Scientific; Hampton, NH, USA) was added. Filters were incubated at room temperature for 24 h in scintillation fluid, vortexed, and radioactivity (measured as DPMs) was determined via a liquid scintillation spectrophotometer (Tri Carb 2100 TR Liquid Scintillation Analyzer, Packard Instruments, Meriden, CT, USA).

[6] = 1 μM ligand, 1 nM radioligand, PC-3 membranes

Compound	LDH release (DU-145 cells)	increase in LDH release (DU-145 cells)	CBR downregulation (reduction of [^3H]WIN-55,212-2 (1 nM) binding) ([1]; DU-145 cells, 10 μM, 48 h, vs vehicle) [%]	CBR downregulation (reduction of [^3H]WIN-55,212-2 (1 nM) binding) ([2]; PC-3 cells, 10 μM, 48 h, vs vehicle) [%]	displacement of [^3H]WIN-55,212-2 ([3]; 1 μM ligand, 1 nM radioligand, DU-145 membranes)	displacement of [^3H]WIN-55,212-2 [4, 6]	modulation of [^35S]GTPγS binding [5]	CBR downregulation (reduction of [^3H]WIN-55,212-2 (1 nM) binding) [1] [%]	CBR downregulation (reduction of [^3H]WIN-55,212-2 (1 nM) binding) [2]	displacement of [^3H]WIN-55,212-2 [3]	displacement of [^3H]WIN-55,212-2 [4]	attenuation of GW-405833 (50 μM)-induced LDH release (DU-145 cells; co-incubation with 10 μM ligand)
Cc1c(C(=O)c2cccc3ccccc23)c2cccc3c2n1[C@H](CN1CCOCC1)CO3 [WIN-55,212-2]	neither low (10 μM) nor high (50 μM) concentrations of WIN-55,212-2, AM-251 or AM-630 altered LDH release	neither low (10 μM) nor high (50 μM) concentrations of WIN-55,212-2, AM-251 or AM-630 altered LDH release	88.45 ± 5.22	84.33 ± 5.2	significantly displaced; also recorded: complete displacement	significantly displaced; also recorded: complete displacement	neither the agonist at canonical CB1/CB2 receptors WIN-55-212-2 (10 μM) nor the CB2-selective agonist GW-405-833 (10 μM) increased [^35S]GTPγS binding	–	–	–	–	–
COc1ccc2c(c1)c(CCN1CCOCC1)c(C)n2C(=O)c1cccc(Cl)c1Cl [GW-405833]	No significant effects	74.2 ± 4.5%	–	–	–	–	neither the agonist at canonical CB1/CB2 receptors WIN-55-212-2 (10 μM) nor the CB2-selective agonist GW-405-833 (10 μM) increased [^35S]GTPγS binding	55 ± 12.5	68.33 ± 3.8%	greater than 50%	greater than 50%	–
Cc1c(C(=O)NN2CCCCC2)nn(-c2ccc(Cl)cc2Cl)c1-c1ccc(Cl)cc1 [rimonabant]	No significant effects	16.5 ± 3.5%	–	–	–	greater than 50%	did reduce [^35S]GTPγS binding below basal levels	63.75 ± 15.5	non-significant trend towards decreased receptor expression	greater than 50%	–	almost completely blocked GW-405833 induced LDH release

From article PMC8954350, “Non-Canonical Cannabinoid Receptors with Distinct Binding and Signaling Properties in Prostate and Other Cancer Cell Types Mediate Cell Death” (International Journal of Molecular Sciences, 2022)
